Experimental data published in PMC8162404, “Proteomimetic surface fragments distinguish targets by function” (Chemical Science, 2020).

Columns and labels:
Gal-1 [1] = target: T1, Gal-1 (Homo sapiens, UniProt P09382); assay: Competition pull-down with lactose; format: binding; settings: H14 library; lactose 10 mM; read-out: Surface mapping KD (apparent), competition
T1 construct: made in house; host or cells: E. coli BL21(DE3)
Procedure, shortened: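 His6-tagged proteins immobilized on Co-NTA resin at 64 µM final with 64-member LSM foldamer sublibraries (1 M each, as printed) in pH 7.4 HEPES/NaCl buffers (Ca2+/TCEP per target), 30 min RT; competitor peptides 200 µM final, lactose 10 mM for Gal-1. Bound fractions from LC-MS loss vs protein-free resin; KD assuming 1:1 binding.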

RecQ-WH [2] = target: T2, RecQ-WH (Escherichia coli, UniProt P15043); assay: Competition pull-down with native ligand SSB-Ct8; format: binding, E. coli; settings: H14 library; competitor peptide 200 µM; read-out: Surface mapping KD (apparent), competition
T2 construct: coding for residues 408– 523 of E. coli RecQ; made in house; host or cells: E. coli BL21(DE3)

S100B [3] = target: T3, S100B (Homo sapiens, UniProt P04271); assay: Pull-down assay with immobilized protein and LSM libraries; format: binding; settings: H14 library; 1:1 binding assumed; read-out: Surface mapping KD (apparent)
T3 construct: made in house; host or cells: Escherichia coli BL21(DE3)
T3 sequence (P04271 1-92): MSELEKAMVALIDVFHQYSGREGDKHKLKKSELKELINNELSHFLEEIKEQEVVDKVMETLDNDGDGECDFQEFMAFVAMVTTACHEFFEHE
Procedure, shortened: (§1)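 Buffers were HEPES pH 7.4 with 150 mM NaCl, plus 1 mM TCEP and 1 mM CaCl2 (50 mM HEPES) for S100A4 and S100B, 1 mM TCEP for Gal-1, and no additive for RecQ-WH. Immobilized protein at 64 µM was equilibrated 30 min with the LSM sublibrary, and unbound probes were measured by LC-MS.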

S100A4 = target: T4, S100A4 (Homo sapiens, UniProt P26447); assay: as above; format: binding; settings: H14 library; 1:1 binding assumed; read-out: Surface mapping KD (apparent)
T4 construct: made in house; host or cells: Escherichia coli BL21(DE3)
Procedure, shortened: as §1

Gal-1 [4] = target: T1, Gal-1; assay: as above; format: binding; settings: H14 library; 1:1 binding assumed; read-out: Surface mapping KD (apparent)
Procedure, shortened: as §1

S100B [5] = target: T3, S100B; assay: Competition pull-down with native ligand RSK1 (689–735); format: binding; settings: H14 library; competitor peptide 200 µM; read-out: Surface mapping KD (apparent), competition
CaM [6] = target: T5, CaM (Bos taurus, UniProt P62157); assay: Pull-down assay with immobilized protein and LSM libraries; format: binding, bovine; settings: H14 library; 1:2 stoichiometry assumed; read-out: Surface mapping KD (apparent)
T5 construct: made in house; host or cells: E. coli BL21 (DE3)
Procedure, shortened: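 CaM buffer was 20 mM HEPES pH 7.4, 150 mM NaCl, 5 mM CaCl2. LSM sublibrary members ([…]) incubated 30 min, RT, with equimolar His-tagged protein on Co-NTA resin. HPLC-MS measured unbound probes; bound fraction relative to resin-only background gave dissociation constants.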

RecQ-WH [7] = target: T2, RecQ-WH; assay: as above; set-up: species or system E. coli; settings: H14 library; 1:1 binding assumed; read-out: Surface mapping KD (apparent)
Procedure, shortened: as §1

CaM [8] = target: T5, CaM; assay: Competition pull-down with native ligand TRPV1-Ct15; format: binding, bovine; settings: H14 library; competitor peptide 200 µM; read-out: Surface mapping KD (apparent), competition

T1 sequence (P09382 whole entry): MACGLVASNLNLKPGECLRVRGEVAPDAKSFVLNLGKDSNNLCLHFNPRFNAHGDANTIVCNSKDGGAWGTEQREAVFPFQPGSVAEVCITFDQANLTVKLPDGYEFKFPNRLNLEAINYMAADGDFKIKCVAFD
T2 sequence (P15043 408-523): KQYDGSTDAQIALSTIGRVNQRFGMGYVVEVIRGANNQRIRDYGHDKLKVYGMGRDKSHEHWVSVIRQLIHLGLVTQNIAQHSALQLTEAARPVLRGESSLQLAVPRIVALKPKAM
T4 sequence (P26447 whole entry): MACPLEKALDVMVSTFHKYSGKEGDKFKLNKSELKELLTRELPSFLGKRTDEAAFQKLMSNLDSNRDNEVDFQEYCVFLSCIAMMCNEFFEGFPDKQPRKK

Row | SMILES | Kd (Gal-1 [1]) [µM] | Kd (RecQ-WH [2]) [µM] | Kd (S100B [3]) [µM] | Kd (S100A4) [µM] | Kd (Gal-1 [4]) [µM] | Kd (S100B [5]) [µM] | Kd (CaM [6]) [µM] | Kd (RecQ-WH [7]) [µM] | Kd (CaM [8]) [µM]
1 | C[C@@H](CC(=O)N[C@H]1CCCC[C@@H]1C(=O)N[C@H]1CCCC[C@@H]1C(=O)N[C@H](CC(=O)N[C@H]1CCCC[C@@H]1C(N)=O)Cc1ccccc1)NC(=O)[C@H]1CCCC[C@@H]1N [H14 AF] | 333 | 454 | 45 | 13 | 121 | 354 | 5 | 483 | 
2 | NC(=O)[C@H]1CCCC[C@@H]1NC(=O)C[C@H](Cc1ccccc1)NC(=O)[C@H]1CCCC[C@@H]1NC(=O)[C@H]1CCCC[C@@H]1NC(=O)C[C@H](CC(=O)O)NC(=O)[C@H]1CCCC[C@@H]1N [H14 DF] | 388 |  | 339 |  |  | 130 |  | 288 | 220
3 | C[C@@H](CC(=O)N[C@H]1CCCC[C@@H]1C(N)=O)NC(=O)[C@H]1CCCC[C@@H]1NC(=O)[C@H]1CCCC[C@@H]1NC(=O)C[C@H](Cc1ccccc1)NC(=O)[C@H]1CCCC[C@@H]1N [H14 FA] | 151 |  | 253 | 58 | 130 | 330 | 3 | 282 | 309
4 | N=C(N)NCCC[C@@H](CC(=O)N[C@H]1CCCC[C@@H]1C(N)=O)NC(=O)[C@H]1CCCC[C@@H]1NC(=O)[C@H]1CCCC[C@@H]1NC(=O)C[C@H](Cc1ccccc1)NC(=O)[C@H]1CCCC[C@@H]1N [H14 FR] | 208 |  | 56 | 124 | 222 | 406 | 3 | 447 | 290
5 | NC(=O)[C@H]1CCCC[C@@H]1NC(=O)C[C@H](Cc1ccc(O)cc1)NC(=O)[C@H]1CCCC[C@@H]1NC(=O)[C@H]1CCCC[C@@H]1NC(=O)C[C@H](Cc1ccccc1)NC(=O)[C@H]1CCCC[C@@H]1N [H14 FY] | 395 | 231 | 96 | 57 | 214 | 146 | 3 | 92 | 
6 | CC(C)C[C@@H](CC(=O)N[C@H]1CCCC[C@@H]1C(=O)N[C@H]1CCCC[C@@H]1C(=O)N[C@H](CC(=O)N[C@H]1CCCC[C@@H]1C(N)=O)Cc1ccc(O)cc1)NC(=O)[C@H]1CCCC[C@@H]1N [H14 LY] |  |  | 85 | 26 | 231 | 154 | 10 | 239 | 455
7 | CSCC[C@@H](CC(=O)N[C@H]1CCCC[C@@H]1C(=O)N[C@H]1CCCC[C@@H]1C(=O)N[C@H](CC(=O)N[C@H]1CCCC[C@@H]1C(N)=O)Cc1ccccc1)NC(=O)[C@H]1CCCC[C@@H]1N [H14 MF] | 181 |  | 85 | 23 | 223 | 316 | 2 | 304 | 133
8 | CSCC[C@@H](CC(=O)N[C@H]1CCCC[C@@H]1C(N)=O)NC(=O)[C@H]1CCCC[C@@H]1NC(=O)[C@H]1CCCC[C@@H]1NC(=O)C[C@H](CCSC)NC(=O)[C@H]1CCCC[C@@H]1N [H14 MM] |  |  | 174 | 14 | 183 | 276 | 16 | 455 | 448
9 | CSCC[C@@H](CC(=O)N[C@H]1CCCC[C@@H]1C(=O)N[C@H]1CCCC[C@@H]1C(=O)N[C@H](CC(=O)N[C@H]1CCCC[C@@H]1C(N)=O)Cc1c[nH]c2ccccc12)NC(=O)[C@H]1CCCC[C@@H]1N [H14 MW] | 172 |  | 44 | 41 | 141 | 131 | 2 | 197 | 208
10 | CSCC[C@@H](CC(=O)N[C@H]1CCCC[C@@H]1C(=O)N[C@H]1CCCC[C@@H]1C(=O)N[C@H](CC(=O)N[C@H]1CCCC[C@@H]1C(N)=O)Cc1ccc(O)cc1)NC(=O)[C@H]1CCCC[C@@H]1N [H14 MY] | 133 |  | 176 | 90 | 98 | 330 | 15 | 263 | 402
11 | NC(=O)[C@H]1CCCC[C@@H]1NC(=O)C[C@H](Cc1c[nH]c2ccccc12)NC(=O)[C@H]1CCCC[C@@H]1NC(=O)[C@H]1CCCC[C@@H]1NC(=O)C[C@H](CO)NC(=O)[C@H]1CCCC[C@@H]1N [H14 SW] | 177 | 265 | 79 | 179 | 151 | 458 | 23 | 73 | 
12 | C[C@@H](O)[C@@H](CC(=O)N[C@H]1CCCC[C@@H]1C(=O)N[C@H]1CCCC[C@@H]1C(=O)N[C@H](CC(=O)N[C@H]1CCCC[C@@H]1C(N)=O)Cc1ccccc1)NC(=O)[C@H]1CCCC[C@@H]1N [H14 TF] | 220 |  | 44 | 43 | 140 | 294 | 163 | 407 | 94
13 | NC(=O)[C@H]1CCCC[C@@H]1NC(=O)C[C@H](CC(=O)O)NC(=O)[C@H]1CCCC[C@@H]1NC(=O)[C@H]1CCCC[C@@H]1NC(=O)C[C@H](Cc1c[nH]c2ccccc12)NC(=O)[C@H]1CCCC[C@@H]1N [H14 WD] |  | 479 |  |  |  |  | 308 | 145 | 
14 | NCCCC[C@@H](CC(=O)N[C@H]1CCCC[C@@H]1C(N)=O)NC(=O)[C@H]1CCCC[C@@H]1NC(=O)[C@H]1CCCC[C@@H]1NC(=O)C[C@H](Cc1c[nH]c2ccccc12)NC(=O)[C@H]1CCCC[C@@H]1N [H14 WK] | 252 |  | 40 | 136 | 262 | 412 | 1.1 | 287 | 201
15 | N=C(N)NCCC[C@@H](CC(=O)N[C@H]1CCCC[C@@H]1C(N)=O)NC(=O)[C@H]1CCCC[C@@H]1NC(=O)[C@H]1CCCC[C@@H]1NC(=O)C[C@H](Cc1c[nH]c2ccccc12)NC(=O)[C@H]1CCCC[C@@H]1N [H14 WR] | 280 |  | 32 | 81 | 278 | 166 | 0.5 | 272 | 167
16 | C[C@@H](O)[C@@H](CC(=O)N[C@H]1CCCC[C@@H]1C(N)=O)NC(=O)[C@H]1CCCC[C@@H]1NC(=O)[C@H]1CCCC[C@@H]1NC(=O)C[C@H](Cc1c[nH]c2ccccc12)NC(=O)[C@H]1CCCC[C@@H]1N [H14 WT] |  |  | 107 | 157 |  | 242 | 6 | 165 | 135
17 | CC[C@H](C)[C@@H](CC(=O)N[C@H]1CCCC[C@@H]1C(N)=O)NC(=O)[C@H]1CCCC[C@@H]1NC(=O)[C@H]1CCCC[C@@H]1NC(=O)C[C@H](Cc1ccc(O)cc1)NC(=O)[C@H]1CCCC[C@@H]1N [H14 YI] | 256 |  | 62 | 19 | 148 | 201 | 2 | 150 | 428
18 | CC(C)C[C@@H](CC(=O)N[C@H]1CCCC[C@@H]1C(N)=O)NC(=O)[C@H]1CCCC[C@@H]1NC(=O)[C@H]1CCCC[C@@H]1NC(=O)C[C@H](Cc1ccc(O)cc1)NC(=O)[C@H]1CCCC[C@@H]1N [H14 YL] | 256 |  | 62 | 19 | 148 | 201 | 2 | 150 | 428
19 | CSCC[C@@H](CC(=O)N[C@H]1CCCC[C@@H]1C(N)=O)NC(=O)[C@H]1CCCC[C@@H]1NC(=O)[C@H]1CCCC[C@@H]1NC(=O)C[C@H](Cc1ccc(O)cc1)NC(=O)[C@H]1CCCC[C@@H]1N [H14 YM] | 133 |  | 176 | 90 | 98 | 344 | 7 | 263 | 402
20 | NC(=O)[C@H]1CCCC[C@@H]1NC(=O)C[C@H](Cc1ccc(O)cc1)NC(=O)[C@H]1CCCC[C@@H]1NC(=O)[C@H]1CCCC[C@@H]1NC(=O)C[C@H](Cc1ccc(O)cc1)NC(=O)[C@H]1CCCC[C@@H]1N [H14 YY] |  | 298 | 121 | 70 | 375 | 393 | 7 | 114 | 
